Structures can show the parent of a compound that is named as a salt.
Key:
[1] = hygroscopicity (moisture sorption/desorption); assay type: physicochemical; settings: 25° C., ambient and high humidity conditions
Protocol: The data was obtained using a VTI Model MB-300W Moisture balance with relative humidity levels from 10% to 90% in increments of 10%. The maximum equilibration time at each humidity was set at 4 hours.
As used herein, the term “nonhygroscopic”, in reference to a compound, preferably denotes no measurable weight gain per weight of compound as measured above.
This was an unexpected result, because other salt forms of CA4P free acid are hygroscopic under similar conditions. Variable relative humidity-X-ray diffraction (“RH-XRD”) experiments have shown that the powder pattern remains unchanged on exposure to different humidities at 25° C.

[2] = solid-state chemical stability; assay type: physicochemical; settings: ambient and accelerated conditions of temperature and humidity
[3] = physchem; settings: 25 °C, thermodynamic from solid
[4] = system: murine L1210 lymphocytic leukemia cell line; settings: NCI murine L1210; cited from earlier work
[5] = system: murine P338 lymphocytic leukemia cell line; settings: NCI murine P338; cited from earlier work
[6] = system: microtubulin assembly; settings: cited from earlier work
[7] = cited from earlier work

Row | SMILES | hygroscopicity [1] | chemical stability in the solid-state [2] | solubility ([3]; pH 4.8, water) [mg/mL] | solubility ([3]; pH 8.2, aqueous buffer) [mg/mL] | activity against L1210 lymphocytic leukemia cell line [4] | activity against P338 lymphocytic leukemia cell line [5] | inhibition of microtubulin assembly [6] | solubility in water [7]
1 | COc1ccc(/C=C\c2cc(OC)c(OC)c(OC)c2)cc1OP(=O)(O)O [CA4P mono TRIS salt, CA4P mono-tromethamine salt] | practically nonhygroscopic | good chemical stability | 3.37 | 191 |  |  |  | 
2 | COc1ccc(/C=C\c2cc(OC)c(OC)c(OC)c2)cc1O [combretastatin A-4] |  |  |  |  | significantly active | significantly active | potent inhibitor | essentially insoluble in water

Reference: patent publication US7524832B2, “Combretastatin A-4 phosphate prodrug mono-and di-organic amine salts, mono-and di-amino acid salts and mono-and di-amino acid ester salts” (priority 2000, dated 2009)
